# Patent US12459956B2, “Heterobicyclic carboxamides and uses thereof” (ALCON INC., priority 2019, dated 2025)
# pIC50: −log10 of the molar value.
# Columns and labels:
# Type in all cases: biochemical
# Settings in all cases: KINASE-GLO luminescent kinase assay
# [1] = molecular target: ROCK2 (Homo sapiens (Human), UniProt O75116); assay: ROCK Kinase Inhibition Assay (ROCK2)
# Experimental: (§1) All compounds were initially prepared as 10 mM stocks in anhydrous dimethylsulfoxide (DMSO). A 20 μL aliquot of the 10 mM solutions was transferred to individual wells in column 1 of a 96-well polypropylene microtiter plate (Corning #3363) and diluted with DMSO to give a final compound concentration of 4 mM. Test compounds were then serially diluted 1:5 in DMSO for an 11-point concentration response and further diluted in the assay buffer bringing all compound concentrations to a final range of 100 μM to […] in 2.5% DMSO. The assay was performed in white 96-well, flat-bottom, half-area, non-binding assay plate (Corning #3642) in assay buffer consisting of 20 mM HEPES (pH 7.5), 10 mM MgCl2*6H2O, 100 μM sodium orthovanadate, 0.05% CHAPS and 0.1% bovine serum albumin. […] The reaction was initiated by the addition of 10 μL of 4× stock solution ATP (2 μM). Reactions were thoroughly mixed manually, covered and allowed to incubate at room temperature for 75 min. Protein kinase activity was quantitated using Promega's KINASE-GLO™ luminescent Kinase Assay Kit according to the manufacturer's directions. ATP concentrations remaining in Test wells following the termination of the enzymatic reaction were compared against control wells containing equivalent amounts of DMSO containing no inhibitor (CTRL). […] Percent of Control (POC) values were determined for each concentration of compound tested according to the equation: POC=((Test well value−BKG)/(CTRL−BKG))*100 IC50 values were calculated using the following 4-parameter logistic curve-fitting algorithm: f(x)=(A+((B−A)/(1+((x/C)^D)))) IC50 values were converted to Ki values using the following Cheng-Prusoff Equation: Ki=IC50/(1+([ATP]/Km ATP])). JAK Kinase Assays.
# [2] = molecular target: ROCK1 (Homo sapiens (Human), UniProt Q13464); assay: ROCK Kinase Inhibition Assay (ROCK1)
# Experimental: as §1, with “Reactions were thoroughly mixed manually, covered and allowed to incubate at room temperature for 75 min.” left out, “directions.” for “directions. ATP concentrations remaining in Test wells following the termination of the enzymatic reaction were compared against control wells containing equivalent amounts of DMSO containing no inhibitor (CTRL).”, “JAK Kinase Assays.” left out
# [3] = molecular target: TYK2 (Homo sapiens (Human), UniProt P29597); assay: JAK Kinase Assay (TYK2)
# [4] = molecular target: JAK1 (Homo sapiens (Human), UniProt P23458); assay: JAK Kinase Assay (JAK1)
# [5] = molecular target: JAK2 (Homo sapiens (Human), UniProt O60674); assay: JAK Kinase Assay (JAK2)
# Chain of JAK2 (O60674 whole entry, species assumed): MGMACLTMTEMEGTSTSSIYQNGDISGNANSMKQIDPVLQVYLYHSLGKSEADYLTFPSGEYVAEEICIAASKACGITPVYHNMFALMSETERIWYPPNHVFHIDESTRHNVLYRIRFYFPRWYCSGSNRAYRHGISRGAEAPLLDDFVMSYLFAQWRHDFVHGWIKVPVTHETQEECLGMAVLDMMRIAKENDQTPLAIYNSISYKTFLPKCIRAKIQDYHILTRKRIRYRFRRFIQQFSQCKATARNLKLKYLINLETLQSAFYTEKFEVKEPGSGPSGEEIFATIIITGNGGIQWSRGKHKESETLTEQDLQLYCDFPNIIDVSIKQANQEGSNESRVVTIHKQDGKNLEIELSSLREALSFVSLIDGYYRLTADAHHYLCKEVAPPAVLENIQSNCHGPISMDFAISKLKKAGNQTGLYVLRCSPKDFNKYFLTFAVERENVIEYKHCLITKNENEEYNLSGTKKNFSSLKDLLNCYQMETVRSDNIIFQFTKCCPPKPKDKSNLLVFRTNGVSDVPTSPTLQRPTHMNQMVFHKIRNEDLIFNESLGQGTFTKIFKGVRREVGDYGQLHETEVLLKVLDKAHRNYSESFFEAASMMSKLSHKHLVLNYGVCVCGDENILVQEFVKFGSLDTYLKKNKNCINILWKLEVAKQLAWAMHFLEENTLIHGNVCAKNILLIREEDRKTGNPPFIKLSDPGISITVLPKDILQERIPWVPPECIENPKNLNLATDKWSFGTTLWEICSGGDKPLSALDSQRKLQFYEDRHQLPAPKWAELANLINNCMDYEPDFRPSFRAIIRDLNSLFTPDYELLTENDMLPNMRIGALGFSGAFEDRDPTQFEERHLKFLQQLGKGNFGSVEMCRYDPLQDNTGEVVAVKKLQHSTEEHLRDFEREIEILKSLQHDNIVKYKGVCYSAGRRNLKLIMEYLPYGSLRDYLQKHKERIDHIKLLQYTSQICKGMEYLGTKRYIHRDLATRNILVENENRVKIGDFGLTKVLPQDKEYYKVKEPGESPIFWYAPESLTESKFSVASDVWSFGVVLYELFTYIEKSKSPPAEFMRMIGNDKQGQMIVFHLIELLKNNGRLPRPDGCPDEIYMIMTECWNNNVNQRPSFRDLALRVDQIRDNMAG
# Chain of TYK2 (P29597 whole entry, species assumed): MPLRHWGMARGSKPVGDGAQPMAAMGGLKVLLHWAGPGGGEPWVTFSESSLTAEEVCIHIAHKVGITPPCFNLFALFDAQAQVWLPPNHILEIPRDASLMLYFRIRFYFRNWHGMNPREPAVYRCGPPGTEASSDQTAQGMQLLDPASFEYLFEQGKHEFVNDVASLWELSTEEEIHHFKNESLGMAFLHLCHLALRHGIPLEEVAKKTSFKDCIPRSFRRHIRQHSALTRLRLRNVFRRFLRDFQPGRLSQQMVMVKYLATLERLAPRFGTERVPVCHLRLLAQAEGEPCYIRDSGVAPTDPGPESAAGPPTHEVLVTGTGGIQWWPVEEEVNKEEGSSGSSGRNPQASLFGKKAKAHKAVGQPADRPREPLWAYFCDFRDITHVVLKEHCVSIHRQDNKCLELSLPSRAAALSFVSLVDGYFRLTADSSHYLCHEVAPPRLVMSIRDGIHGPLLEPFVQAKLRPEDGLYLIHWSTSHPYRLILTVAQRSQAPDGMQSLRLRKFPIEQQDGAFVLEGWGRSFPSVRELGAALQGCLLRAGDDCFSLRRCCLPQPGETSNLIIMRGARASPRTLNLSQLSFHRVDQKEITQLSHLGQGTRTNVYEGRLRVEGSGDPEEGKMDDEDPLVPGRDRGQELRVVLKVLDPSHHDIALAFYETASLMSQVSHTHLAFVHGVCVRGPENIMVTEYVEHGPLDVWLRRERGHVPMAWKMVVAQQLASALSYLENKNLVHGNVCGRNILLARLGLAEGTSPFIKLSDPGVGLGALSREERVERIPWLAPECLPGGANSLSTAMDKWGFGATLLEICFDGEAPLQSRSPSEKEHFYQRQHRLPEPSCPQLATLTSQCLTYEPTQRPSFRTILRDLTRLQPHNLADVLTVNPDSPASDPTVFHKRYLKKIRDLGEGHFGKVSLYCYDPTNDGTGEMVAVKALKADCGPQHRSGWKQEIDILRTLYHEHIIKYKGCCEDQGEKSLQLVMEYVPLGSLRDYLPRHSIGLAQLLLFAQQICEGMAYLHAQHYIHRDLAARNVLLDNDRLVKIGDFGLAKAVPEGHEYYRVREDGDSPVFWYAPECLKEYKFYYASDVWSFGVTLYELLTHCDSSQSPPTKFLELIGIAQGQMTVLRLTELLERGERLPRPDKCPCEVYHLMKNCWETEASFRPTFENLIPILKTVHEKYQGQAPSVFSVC
# Chain of ROCK2 (O75116 whole entry, species assumed): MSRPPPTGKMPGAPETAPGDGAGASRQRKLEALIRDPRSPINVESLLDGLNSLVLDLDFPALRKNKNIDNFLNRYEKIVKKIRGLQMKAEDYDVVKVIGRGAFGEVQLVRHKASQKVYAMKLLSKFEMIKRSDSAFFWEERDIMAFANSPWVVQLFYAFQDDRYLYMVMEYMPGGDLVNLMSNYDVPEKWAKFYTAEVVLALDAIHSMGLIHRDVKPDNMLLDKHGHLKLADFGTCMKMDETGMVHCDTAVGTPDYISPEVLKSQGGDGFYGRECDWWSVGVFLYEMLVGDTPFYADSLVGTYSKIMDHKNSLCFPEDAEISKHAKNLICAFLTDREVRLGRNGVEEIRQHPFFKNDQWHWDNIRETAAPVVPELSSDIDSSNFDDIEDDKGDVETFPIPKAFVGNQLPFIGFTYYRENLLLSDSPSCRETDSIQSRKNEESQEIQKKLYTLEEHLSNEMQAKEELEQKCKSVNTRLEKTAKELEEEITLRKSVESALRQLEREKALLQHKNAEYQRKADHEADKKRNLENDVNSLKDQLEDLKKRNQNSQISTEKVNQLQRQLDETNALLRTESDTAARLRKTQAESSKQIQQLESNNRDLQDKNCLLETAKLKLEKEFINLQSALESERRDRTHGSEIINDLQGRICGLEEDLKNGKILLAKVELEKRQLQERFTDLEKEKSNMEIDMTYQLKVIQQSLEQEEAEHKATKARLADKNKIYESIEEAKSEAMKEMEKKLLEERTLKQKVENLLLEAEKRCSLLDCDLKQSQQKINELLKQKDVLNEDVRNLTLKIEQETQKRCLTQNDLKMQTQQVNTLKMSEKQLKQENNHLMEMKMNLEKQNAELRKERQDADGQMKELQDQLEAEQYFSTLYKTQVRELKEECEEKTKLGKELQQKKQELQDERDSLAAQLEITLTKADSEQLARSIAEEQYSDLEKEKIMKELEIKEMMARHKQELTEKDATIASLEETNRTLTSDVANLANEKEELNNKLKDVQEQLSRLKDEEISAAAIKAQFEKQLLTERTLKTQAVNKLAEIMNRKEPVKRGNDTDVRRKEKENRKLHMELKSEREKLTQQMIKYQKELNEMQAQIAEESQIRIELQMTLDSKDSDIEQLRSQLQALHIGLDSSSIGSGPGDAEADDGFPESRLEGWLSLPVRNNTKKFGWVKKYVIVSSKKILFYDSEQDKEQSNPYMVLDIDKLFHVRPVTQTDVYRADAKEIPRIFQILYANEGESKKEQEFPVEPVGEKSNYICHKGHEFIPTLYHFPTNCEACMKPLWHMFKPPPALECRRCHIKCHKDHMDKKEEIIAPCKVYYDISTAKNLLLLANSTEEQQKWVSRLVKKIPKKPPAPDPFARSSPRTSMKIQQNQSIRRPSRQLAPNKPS
# Chain of ROCK1 (Q13464 whole entry, species assumed): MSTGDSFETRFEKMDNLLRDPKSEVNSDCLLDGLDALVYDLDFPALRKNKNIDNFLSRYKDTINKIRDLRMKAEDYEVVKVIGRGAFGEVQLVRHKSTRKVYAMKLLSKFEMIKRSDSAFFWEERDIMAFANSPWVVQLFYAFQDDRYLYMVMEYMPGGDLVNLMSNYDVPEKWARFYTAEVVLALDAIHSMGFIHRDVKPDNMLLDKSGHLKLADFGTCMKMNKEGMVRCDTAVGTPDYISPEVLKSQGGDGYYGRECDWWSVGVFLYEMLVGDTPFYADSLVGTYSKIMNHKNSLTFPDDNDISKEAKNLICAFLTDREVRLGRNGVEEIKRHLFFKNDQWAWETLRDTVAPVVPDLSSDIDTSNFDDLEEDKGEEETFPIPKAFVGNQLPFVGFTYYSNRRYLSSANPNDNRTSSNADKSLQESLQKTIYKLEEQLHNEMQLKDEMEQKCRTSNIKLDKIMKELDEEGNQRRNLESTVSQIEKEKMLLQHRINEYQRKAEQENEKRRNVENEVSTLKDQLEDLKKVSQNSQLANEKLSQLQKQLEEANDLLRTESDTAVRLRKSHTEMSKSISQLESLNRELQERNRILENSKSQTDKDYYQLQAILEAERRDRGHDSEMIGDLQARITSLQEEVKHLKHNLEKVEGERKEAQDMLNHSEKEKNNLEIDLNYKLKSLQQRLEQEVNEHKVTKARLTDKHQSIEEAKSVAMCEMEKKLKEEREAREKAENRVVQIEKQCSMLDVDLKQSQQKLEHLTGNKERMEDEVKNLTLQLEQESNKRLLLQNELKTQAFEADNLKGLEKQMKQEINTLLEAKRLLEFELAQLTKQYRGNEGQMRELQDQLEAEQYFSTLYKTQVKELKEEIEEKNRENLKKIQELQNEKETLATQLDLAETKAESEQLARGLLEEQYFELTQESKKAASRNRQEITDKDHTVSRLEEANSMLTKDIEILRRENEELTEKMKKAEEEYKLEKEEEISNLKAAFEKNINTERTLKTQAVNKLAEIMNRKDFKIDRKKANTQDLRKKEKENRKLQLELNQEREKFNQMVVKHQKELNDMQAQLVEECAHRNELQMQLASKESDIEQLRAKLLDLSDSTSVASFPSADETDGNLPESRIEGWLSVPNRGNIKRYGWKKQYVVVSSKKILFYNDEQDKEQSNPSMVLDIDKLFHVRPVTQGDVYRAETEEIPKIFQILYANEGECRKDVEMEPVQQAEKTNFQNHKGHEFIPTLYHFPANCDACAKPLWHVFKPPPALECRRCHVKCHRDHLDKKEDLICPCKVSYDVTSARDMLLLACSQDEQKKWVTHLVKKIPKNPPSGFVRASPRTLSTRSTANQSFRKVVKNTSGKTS
pIC50 [1],Structure (SMILES),also measured
6.64,Cc1cncc2sc(NC(=O)C3CC3c3ccncc3)cc12 (centres unmarked) [Compound 14],–
8.30,Cc1cncc2sc(NC(=O)C3CC3c3cc(C(=O)NCc4ncccn4)cs3)cc12 (centres unmarked) [Compound 2],–
–,O=C(Nc1cc2c(Cl)cncc2s1)C1CC1c1ccccc1 (centres unmarked) [Compound 19],pIC50 [2]: 7.37
–,Cc1cncc2sc(NC(=O)[C@@H]3C[C@H]3c3ccc(S(=O)(=O)Nc4ccccn4)cc3)cc12 [Compound 6],pIC50 [3]: 8.10
–,O=C(Nc1cc2c(Cl)cncc2s1)[C@@H]1C[C@H]1c1ccccc1 [Compound 15],pIC50 [4]: 6.46
8.22,O=C(Nc1nc2ccncc2s1)[C@@H]1CC1c1ccc(S(=O)(=O)Nc2ccccn2)cc1 (mixture of isomers) [Compound 3],pIC50 [2]: 8.15
7.92,O=C(Nc1nc2ccncc2s1)C1CC1c1ccccc1 (centres unmarked) [Compound 12],–
7.52,O=C(Nc1nc2ccncc2s1)C1CC1c1ccncc1 (centres unmarked) [Compound 18],–
–,O=C(Nc1cc2c(Cl)cncc2s1)[C@@H]1C[C@H]1c1ccc(S(=O)(=O)Nc2ccccn2)cc1 [Compound 7],pIC50 [3]: 8.96
8.15,O=C(Nc1ccc2cnccc2n1)C1CC1c1ccccc1 (centres unmarked) [Compound 11],–
7.74,Cc1cncc2sc(NC(=O)[C@@H]3C[C@H]3c3ccccc3)cc12 [Compound 13],–
–,O=C(Nc1ccc2cnccc2n1)C1CC1c1ccc(S(=O)(=O)Nc2ccccn2)cc1 (centres unmarked) [Compound 22],pIC50 [5]: 7.66
7.52,O=C(Nc1ccc2cnccc2n1)C1CC1c1ccncc1 (centres unmarked) [Compound 17],–
–,O=C(NCc1ncccn1)c1csc(C2CC2C(=O)Nc2cc3c(Cl)cncc3s2)c1 (centres unmarked) [Compound 20],pIC50 [3]: 7.46
7.27,Cc1cncc2sc(NC(=O)C3CC3c3ccccc3)cc12 (centres unmarked) [Compound 16],–
6.95,O=C(Nc1cc2c(Cl)cncc2s1)C1CC1c1ccncc1 (centres unmarked) [Compound 21],–
–,Cc1cncc2sc(NC(=O)[C@@H]3C[C@H]3c3ccc(S(=O)(=O)Nc4ccccn4)cc3)cc12 (racemic) [Compound 5],pIC50 [5]: 8.05
8.22,O=C(Nc1ccc2cnccc2n1)[C@@H]1CC1c1ccc(S(=O)(=O)Nc2ccccn2)cc1 (mixture of isomers) [Compound 4],pIC50 [5]: 7.66
